These results are taken from patent US10596094B2, “Compositions and methods for reducing skin pigmentation” (Yale University, priority 2013, dated 2020).

Assay [1] relates to melanocyte-keratinocyte co-cultures. In words: Fontana-Masson silver stain for melanin in melanocyte-keratinocyte co-cultures. It counts as cell-based, human. To be noted: 50 micromolar, 72 h (FIG. 7). The protocol:
Primary neonatal normal human keratinocytes (NHKs) (Invitrogen, Life Technologies, Grand Island, N.Y.) were seeded at a density of 5×10^5 cells/well into 4-well collagen coated chamber slides (Fisher Scientific, Waltham, Mass.). Cells were maintained in 1 ml of serum-free keratinocyte growth medium (KGM) (Keratinocyte-SFM, Invitrogen) and incubated for 48 h in 5% CO2 incubator. The complete KGM was prepared by adding KGM Singlequots (Lonza). Darkly pigmented human neonatal epidermal melanocytes (HEM-DP) (Invitrogen) were seeded over keratinocytes at 2.5×10^5 cells/well and incubated for 24 h at 37° C. The KGM was replaced with 1 ml of melanocyte growth medium (MGM) (Invitrogen), and the co-cultures were incubated for another 48 hours. The co-cultures were treated with the inhibitors at indicated concentrations in a final volume of 20 microliter/well in triplicate for 72 h. The cells were gently washed with 1× phosphate buffered saline (PBS) and fixed in 4% Paraformaldehyde (PFA) for 20 minutes at room temperature.
Silver staining for melanin was performed according to the instructions provided with the Fontana-Masson staining kit (American MasterTech, Lodi, Calif.). Cells grown in collagen-coated chamber slides were fixed in 4% PFA and rinsed with water for 5 minutes to remove traces of PBS. Slides were then placed in ammonical silver solution followed by incubation in solutions of 0.1% gold chloride, 5% sodium thiosulfate, rinsed in running tap water to remove the staining solution, and dehydrated through 3 changes of fresh absolute alcohol. Cleared slides were rinsed through 3 changes of fresh xylene and coverslips were applied with mounting medium.

For assay [2], the system named is human melanocyte-keratinocyte co-cultures. Briefly: EBL/SNA lectin staining of melanocyte-keratinocyte co-cultures. It is filed as cell-based. To be noted: L-cytidine 25 micromolar, 72 h, vs untreated (FIG. 5).
Experimental: Primary neonatal normal human keratinocytes (NHKs) (Invitrogen, Life Technologies, Grand Island, N.Y.) were seeded at a density of 5×10^5 cells/well into 4-well collagen coated chamber slides (Fisher Scientific, Waltham, Mass.). Cells were maintained in 1 ml of serum-free keratinocyte growth medium (KGM) (Keratinocyte-SFM, Invitrogen) and incubated for 48 h in 5% CO2 incubator. The complete KGM was prepared by adding KGM Singlequots (Lonza). Darkly pigmented human neonatal epidermal melanocytes (HEM-DP) (Invitrogen) were seeded over keratinocytes at 2.5×10^5 cells/well and incubated for 24 h at 37° C. The KGM was replaced with 1 ml of melanocyte growth medium (MGM) (Invitrogen), and the co-cultures were incubated for another 48 hours. The co-cultures were treated with the inhibitors at indicated concentrations in a final volume of 20 microliter/well in triplicate for 72 h. The cells were gently washed with 1× phosphate buffered saline (PBS) and fixed in 4% Paraformaldehyde (PFA) for 20 minutes at room temperature. […] The slides were air dried and mounted on cover slips and the images were captured in tiff format using fluorescence microscope (Nikon) and analyzed.
Assay [3] shares this test system. In words: Melanin assay (solubilized melanin, spectrophotometry) in melanocyte-keratinocyte co-cultures. It is filed as cell-based. As to conditions: for Minimal concentration for >80% inhibition of melanin content: single agents, 72 h, data from FIG. 8A.
Experimental: Cells were plated on 24-well plates at 2×10^5 cells/well and treated with various inhibitors in triplicate. Media were replaced with fresh inhibitor-containing media every 24 h. After 72 h, cells were lysed with cell lysis buffer (Invitrogen) containing protease inhibitor cocktail and PMSF (phenylmethyl sulfonyl fluoride) and incubated for 20 minutes on ice. […] From the same samples, the supernatants were saved for measurement of dopa oxidase activity and the pellets were evaluated for melanin content.
Melanin was extracted following a previously described procedure (Ni-Komatsu, et al., 2005, Pigment Cell Res 18(6),447-453). […] The melaninextracts (100 μl) were transferred to a 96-well plate and total melanin content quantitated with a M5 Spectramax plate reader (490 nm).
Dose response curves were assessed for Bliss Additivity and synergism as described (Fitzgerald et al., 2006, Nat Chem Biol 2:458-466; Ritz, C. & Streibig, J. C. (2005) Bioassay Analysis using R. J. Statist. Software, Vol 12, Issue 5). For comparisons of melanin content and tyrosinase/dopa oxidase activity in treated vs. untreated cultures, P-values were determined by the Welch Two Sample t-test.
Assay [4] concerns the target EBL/SNA (Sambucus nigra, UniProt Q41358). As to conditions: Shibuya et al, 1987; Kaku et al, 2007; cited from earlier work.

Sequence of EBL/SNA (Q41358 309-570 limits assumed): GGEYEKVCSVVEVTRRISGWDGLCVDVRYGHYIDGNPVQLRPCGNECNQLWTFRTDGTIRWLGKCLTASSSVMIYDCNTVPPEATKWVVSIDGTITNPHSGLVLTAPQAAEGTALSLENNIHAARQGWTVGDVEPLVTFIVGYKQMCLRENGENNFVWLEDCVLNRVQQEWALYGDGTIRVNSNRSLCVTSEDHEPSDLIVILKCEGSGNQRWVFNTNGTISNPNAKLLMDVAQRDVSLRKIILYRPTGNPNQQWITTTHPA
Sequence of EBL/SNA (Q41358 29-289 partner limits assumed): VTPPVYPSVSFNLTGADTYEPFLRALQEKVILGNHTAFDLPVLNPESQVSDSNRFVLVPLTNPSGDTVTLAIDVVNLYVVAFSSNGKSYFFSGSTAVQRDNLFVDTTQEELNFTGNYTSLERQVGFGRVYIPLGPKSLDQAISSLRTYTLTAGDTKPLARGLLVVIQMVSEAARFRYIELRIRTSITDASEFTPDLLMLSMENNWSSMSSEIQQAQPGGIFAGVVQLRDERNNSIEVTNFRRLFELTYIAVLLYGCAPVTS

Consider `Nc1ccn([C@@H]2O[C@H](CO)[C@@H](O)[C@H]2O)c(=O)n1` [cytidine], for which the “melanin content (Fontana-Masson silver staining)” value in assay [1] was “reduced melanin content”. Besides, the EBL staining entry in assay [2] is given as “markedly reduced”.

In the case of Neu5Ac(α2,3)Gal(β1-4)Glc [3′-SL], in assay [1], the “melanin content (Fontana-Masson silver staining)” value is on record as “reduced melanin content”. Moreover, the “melanin content compared to untreated cultures” value in assay [3] (50 micromolar, 72 h (FIG. 6)) was “strongest reduction of the three”. The “Minimal concentration for >80% inhibition of melanin content” value in assay [3] was found to be 30 µM. The “inhibition of EBL-mediated precipitation of glycophorin” value in assay [4] is “poor inhibitor”.

As to Neu5Ac(α2,6)Gal(β1-4)Glc [6′-SL], the “melanin content (Fontana-Masson silver staining)” value in assay [1] is “reduced melanin content”. In assay [3], the “Minimal concentration for >80% inhibition of melanin content” value amounted to 30 µM. Further, the “inhibition of EBL-mediated precipitation of glycophorin” value in assay [4] is reported as “strong inhibitor”.
